Measurements from patent publication US20100093062A1, “TR[…] FOR PERKINSUS SPECIES” (priority 2007, published 2010).
Entries after “also recorded” stand apart in the source; their conditions may differ.

Test system: Perkinsus proliferation
Experiment: Effect of selectable marker candidates on Perkinsus proliferation (OD600 over time, visual inspection of treated cells)
Type: cell-based, Perkinsus marinus
Details: for position of OD600 curve in FIG. 2: at 15 days, curves ranked top to bottom; for effect on parasite growth / Perkinsus proliferation: FIG. 2, optical density (OD600) as a function of time in days
Description: FIG. 2 is a graph of Optical density (OD600) as a function of time, in days, for various selectable marker candidates for their effect on Perkinsus proliferation. […]
G418 (800 μg/ml) was highly toxic, with visible effects six days after treatment. […] Visual inspection of the treated cells indicated changes in the morphology and cell death. These changes were more evident for G418 and pyrimethamine than with the CAP treatment.

| SMILES | position of OD600 curve in FIG. 2 (100 μg/ml) | position of OD600 curve in FIG. 2 (400 μg/ml) | time to visible effects after treatment (800 μg/ml) | toxicity to the parasite (800 μg/ml) | position of OD600 curve in FIG. 2 (800 μg/ml) | time to cells dying after treatment (100 and 400 μg/ml) [days] | effect on parasite growth / Perkinsus proliferation | changes in the morphology and cell death, visual inspection of treated cells (compared with the CAP treatment) | effect on parasite growth (lower doses tested, 100 and 400 μg/ml) | position of OD600 curve in FIG. 2 (50 μg/ml) | effect on parasite growth / Perkinsus proliferation (listed as CAP) |
| --- | --- | --- | --- | --- | --- | --- | --- | --- | --- | --- | --- |
| CN[C@@H]1[C@@H](O)[C@@H](O[C@@H]2[C@@H](O)[C@H](O[C@H]3O[C@H]([C@@H](C)O)[C@@H](O)[C@H](O)[C@H]3N)[C@@H](N)C[C@H]2N)OC[C@]1(C)O [G418] | lowest curve | seventh highest curve | six | highly toxic | sixth highest curve | 15 | inhibited parasite growth; also recorded: inhibition of Perkinsus proliferation, especially G418 | more evident | still inhibited parasite growth | – | – |
| O=C(N[C@H](CO)[C@H](O)c1ccc([N+](=O)[O-])cc1)C(Cl)Cl [chloramphenicol] | fourth highest curve | fifth highest curve | – | – | – | – | inhibited parasite growth | – | – | third highest curve | inhibition of Perkinsus proliferation |
